Patent US12492243B2, “DNA antibody constructs for use against Pseudomonas aeruginosa” (priority 2016, dated 2025)

Test system: Pseudomonas aeruginosa strain 6077
Assay: Lethal pneumonia challenge in BALB/c mice
Format: in vivo
Settings: MEM 2.3 mg/kg alone or DMAb-DVSF3 100 μg, lethal PA 6077
Description: The unrelated dengue virus DMAb-DVSF3^20 was included as a control. A fourth group of animals received an intraperitoneal (IP) injection of purified protein IgG ABC123 (2 mg/kg) on day −1 before challenge. […] Animals were monitored for 6 days following intranasal challenge for survival as described in^16. Briefly, animals were anesthetized with ketamine and xylazine followed by intranasal administration of the bacterial inoculum contained in 0.05 ml. […] IL-1β, IL-6 and KC/GRO were quantified from the supernatant of lung homogenates using a multiplex kit (Meso Scale Diagnostics) according to the manufactures instructions. For DMAb and meropenem (MEM) combination experiments, MEM was administered subcutaneously 4 hours after infection.

SMILES: C[C@@H](O)[C@H]1C(=O)N2C(C(=O)O)=C(S[C@@H]3CN[C@H](C(=O)N(C)C)C3)[C@H](C)[C@H]12 [MEM, meropenem, reference compound]
- survival, DMAb and meropenem combination experiment: did not survive
